These are literature values, as cited in patent US20070117837A1, “Process for the preparation of amorphous form of a platelet aggregation inhibitor drug” (EGIS GYOGYSZERGYAR RT., priority 2003, published 2007).

For this series the following is noted: amorphous form compared with its morphologically uniform crystalline forms.

With `CC(C)c1c(C(=O)Nc2ccccc2)c(-c2ccccc2)c(-c2ccc(F)cc2)n1CC[C@@H](O)C[C@@H](O)CC(=O)O` [atorvastatine calcium], the biological availability result was “better”.
